Assay [1] concerns antibodies in sera from SARS patients (sera 1a, 1b, 2, 6, 37, 62, London, SARS-yellow, SARS-green). In kind it is binding, human. More on the design: Binding of serum 6 to linear peptides of protein X1 of SARS-CoV Urbani / Binding of serum 37 to linear peptides of protein X1 of SARS-CoV Urbani / Binding of serum 6 to looped/cyclic peptide (PEPSCAN-ELISA) / Binding of serum 37 to looped/cyclic peptide (PEPSCAN-ELISA) / Binding of serum 37 to looped/cyclic peptides of protein X1 of SARS-CoV Urbani / Binding of serum 6 to linear peptides of protein X2 / Binding of serum 37 to linear peptides of protein X2 / Binding of serum 37 to looped/cyclic peptides of protein X2 of SARS-CoV Urbani / Binding of serum 6 to linear peptides of protein M of SARS-CoV Urbani / Binding of serum 37 to linear peptides of protein M of SARS-CoV Urbani / Binding of serum 6 to looped/cyclic peptides of protein M of SARS-CoV Urbani / Binding of serum 37 to looped/cyclic peptides of protein M of SARS-CoV Urbani / Binding of serum 6 to linear peptides of protein X3 of SARS-CoV Urbani / Binding of serum 37 to linear peptides of protein X3 of SARS-CoV Urbani / Binding of serum 37 to looped/cyclic peptides of protein X3 of SARS-CoV Urbani / Binding of serum 6 to linear peptides of protein X4 of SARS-CoV Urbani / Binding of serum 37 to linear peptides of protein X4 of SARS-CoV Urbani / Binding of serum 37 to looped/cyclic peptides of protein X4 of SARS-CoV Urbani / Binding of serum 6 to linear peptides of protein X5 of SARS-CoV Urbani / Binding of serum 37 to linear peptides of protein X5 of SARS-CoV Urbani / Binding of serum 37 to looped/cyclic peptides of protein X5 of SARS-CoV Urbani / Binding of serum 6 to linear peptides of protein N of SARS-CoV Urbani / Binding of serum 37 to linear peptides of protein N of SARS-CoV Urbani / Binding of serum 6 to linear peptide (PEPSCAN-ELISA) / Binding of serum 1a to looped/cyclic peptides of protein N of SARS-CoV Urbani / Binding of serum 1b to looped/cyclic peptides of protein N of SARS-CoV Urbani / Binding of serum 2 to looped/cyclic peptides of protein N of SARS-CoV Urbani / Binding of serum 6 to looped/cyclic peptides of protein N of SARS-CoV Urbani / Binding of serum 37 to looped/cyclic peptides of protein N of SARS-CoV Urbani / Binding of serum 62 to looped/cyclic peptides of protein N of SARS-CoV Urbani / Binding of serum London to looped/cyclic peptides of protein N of SARS-CoV Urbani / Binding of serum SARS-green to looped/cyclic peptides of protein N of SARS-CoV Urbani: unit not given here.

The test system of assay [2] is control sera (pooled serum of ten healthy LUMC hospital workers; commercial negative donor pooled serum from the Dutch bloodbank). In kind it is binding, human. More on the design: Binding of Control serum LUMC to linear peptides / Binding of Control serum Blood-bank to linear peptides / Binding of Control serum LUMC to looped peptides / Binding of Control Serum Blood-Bank to Looped peptides / Binding of Control serum LUMC to linear peptides of the protein M of SARS-CoV Urbani / Binding of Control serum Blood-bank to linear peptides of the protein M of SARS-CoV Urbani / Binding of Control serum LUMC to looped peptides of the protein M of SARS-CoV Urbani / Binding of Control Serum Blood-Bank to Looped peptides of the protein M of SARS-CoV Urbani: unit not given here.

Assay [3] relates to rabbit serum obtained by immunizing a rabbit with the SARS-CoV strain Frankfurt 1. In kind it is binding. More on the design: Binding of a rabbit serum to linear peptides / Binding of a rabbit serum to looped peptides / Rabbit serum linear peptides / Rabbit serum looped peptides / Binding of a rabbit serum to linear peptides of protein N of SARS-CoV Urbani (Rabbit serum linear peptides) / Binding of a rabbit serum to looped/cyclic peptides of protein N of SARS-CoV Urbani (Rabbit serum looped peptides): unit not given here.

For SLLKVTAFQHQNSKK, in assay [1], the “Binding of serum 1a to linear peptides of protein X2” value came out at 0.4, the “Binding of serum 1a to looped/cyclic peptides of protein X2 of SARS-CoV Urbani” value worked out at 0.3, the “Binding of serum 1b to linear peptides of protein X2” value worked out at 0.0 and the “Binding of serum 1b to looped/cyclic peptides of protein X2 of SARS-CoV Urbani” value is 0.2. In addition, in assay [1], the “Binding of serum 2 to linear peptides of protein X2” value was 0.1, the “Binding of serum 2 to looped/cyclic peptides of protein X2 of SARS-CoV Urbani” value came to 0.1, the “Binding of serum 6 to linear peptides of protein X2” value is listed as 0.0 and the “Binding of serum 6 to looped/cyclic peptides of protein X2 of SARS-CoV Urbani” value is 0.1. Besides, in assay [1], the “Binding of serum 37 to linear peptides of protein X2” value was 0.4, the “Binding of serum 37 to looped/cyclic peptides of protein X2 of SARS-CoV Urbani” value was 0.2, the “Binding of serum 62 to linear peptides of protein X2” value was determined as 0.1 and the “Binding of serum 62 to looped/cyclic peptides of protein X2 of SARS-CoV Urbani” value is 0.4. Moreover, in assay [1], the “Binding of serum London to linear peptides of protein X2” value is recorded as 0.1, the “Binding of serum London to looped/cyclic peptides of protein X2 of SARS-CoV Urbani” value amounted to 0.1, the “Binding of serum SARS-green to linear peptides of protein X2” value was 0.0 and the “Binding of serum SARS-green to looped/cyclic peptides of protein X2 of SARS-CoV Urbani” value is on record as 0.1. Also, in assay [1], the “Binding of serum SARS-yellow to linear peptides of protein X2” value was found to be 0.0 and the “Binding of serum SARS-yellow to looped/cyclic peptides of protein X2 of SARS-CoV Urbani” value was determined as 0.2. Moreover, in assay [2], the “Binding of Control Serum Blood-Bank to Looped peptides” value is given as 0.4, the “Binding of Control serum Blood-bank to linear peptides” value came out at 0.2, the “Binding of Control serum LUMC to linear peptides” value stood at 0.0 and the “Binding of Control serum LUMC to looped peptides” value came to 0.3. For the same sequence, in assay [3], the “Binding of a rabbit serum to linear peptides” value turned out to be 0.1 and the “Binding of a rabbit serum to looped peptides” value is given as 0.3.

On to SLSLHKLLQTLVLKM, for which, in assay [1], the “Binding of serum 1a to linear peptides of protein X2” value is on record as 0.6, the “Binding of serum 1a to looped/cyclic peptides of protein X2 of SARS-CoV Urbani” value was 0.5, the “Binding of serum 1b to linear peptides of protein X2” value worked out at 0.5 and the “Binding of serum 1b to looped/cyclic peptides of protein X2 of SARS-CoV Urbani” value amounted to 0.5. In addition, in assay [1], the “Binding of serum 2 to linear peptides of protein X2” value came to 0.3, the “Binding of serum 2 to looped/cyclic peptides of protein X2 of SARS-CoV Urbani” value worked out at 0.3, the “Binding of serum 6 to linear peptides of protein X2” value came to 0.5 and the “Binding of serum 6 to looped/cyclic peptides of protein X2 of SARS-CoV Urbani” value is 0.9. In assay [1], the “Binding of serum 37 to linear peptides of protein X2” value is on record as 0.4, the “Binding of serum 37 to looped/cyclic peptides of protein X2 of SARS-CoV Urbani” value amounted to 0.4, the “Binding of serum 62 to linear peptides of protein X2” value came out at 0.5 and the “Binding of serum 62 to looped/cyclic peptides of protein X2 of SARS-CoV Urbani” value turned out to be 0.5. Further, in assay [1], the “Binding of serum London to linear peptides of protein X2” value is 0.4, the “Binding of serum London to looped/cyclic peptides of protein X2 of SARS-CoV Urbani” value is reported as 1.2, the “Binding of serum SARS-green to linear peptides of protein X2” value is reported as 0.6 and the “Binding of serum SARS-green to looped/cyclic peptides of protein X2 of SARS-CoV Urbani” value came out at 0.3. Also, in assay [1], the “Binding of serum SARS-yellow to linear peptides of protein X2” value is on record as 0.3 and the “Binding of serum SARS-yellow to looped/cyclic peptides of protein X2 of SARS-CoV Urbani” value came to 0.7. In assay [2], the “Binding of Control Serum Blood-Bank to Looped peptides” value was found to be 0.6, the “Binding of Control serum Blood-bank to linear peptides” value stood at 0.4, the “Binding of Control serum LUMC to linear peptides” value was 0.3 and the “Binding of Control serum LUMC to looped peptides” value was found to be 0.7. Also, in assay [3], the “Binding of a rabbit serum to linear peptides” value is given as 0.1 and the “Binding of a rabbit serum to looped peptides” value stood at 0.4.

On to SNRNRFLYIIKLVFL, for which, in assay [1], the “Binding of serum 1a to linear peptides of protein M of SARS-CoV Urbani” value came to 0.6, the “Binding of serum 1b to linear peptides of protein M of SARS-CoV Urbani” value is 0.5, the “Binding of serum 2 to linear peptides of protein M of SARS-CoV Urbani” value was determined as 0.4 and the “Binding of serum 6 to linear peptides of protein M of SARS-CoV Urbani” value was determined as 0.5. Also, in assay [1], the “Binding of serum 37 to linear peptides of protein M of SARS-CoV Urbani” value stood at 0.4, the “Binding of serum 62 to linear peptides of protein M of SARS-CoV Urbani” value was found to be 0.4, the “Binding of serum London to linear peptides of protein M of SARS-CoV Urbani” value is listed as 0.3 and the “Binding of serum SARS-green to linear peptides of protein M of SARS-CoV Urbani” value is 0.4. In assay [1], the “Binding of serum SARS-yellow to linear peptides of protein M of SARS-CoV Urbani” value was determined as 0.3; the “Recognition of the peptide by sera of SARS-CoV infected individuals, and form (linear, looped/cyclic) in which it is recognized” value was “recognized in looped/cyclic form”. Further, in assay [2], the “Binding of Control Serum Blood-Bank to Looped peptides of the protein M of SARS-CoV Urbani” value worked out at 0.7, the “Binding of Control serum Blood-bank to linear peptides of the protein M of SARS-CoV Urbani” value was 0.7, the “Binding of Control serum LUMC to linear peptides of the protein M of SARS-CoV Urbani” value worked out at 0.7 and the “Binding of Control serum LUMC to looped peptides of the protein M of SARS-CoV Urbani” value is listed as 0.9. In assay [3], the “Rabbit serum linear peptides” value stood at 0.5 and the “Rabbit serum looped peptides” value is 0.6.

As for SPKFTTSLSLHKLLQ, in assay [1], the “Binding of serum 1a to linear peptides of protein X2” value is given as 0.6, the “Binding of serum 1a to looped/cyclic peptides of protein X2 of SARS-CoV Urbani” value was 0.5, the “Binding of serum 1b to linear peptides of protein X2” value is listed as 0.4 and the “Binding of serum 1b to looped/cyclic peptides of protein X2 of SARS-CoV Urbani” value amounted to 0.5. In addition, in assay [1], the “Binding of serum 2 to linear peptides of protein X2” value is listed as 0.4, the “Binding of serum 2 to looped/cyclic peptides of protein X2 of SARS-CoV Urbani” value came to 0.3, the “Binding of serum 6 to linear peptides of protein X2” value was 0.4 and the “Binding of serum 6 to looped/cyclic peptides of protein X2 of SARS-CoV Urbani” value is on record as 0.4. For the same sequence, in assay [1], the “Binding of serum 37 to linear peptides of protein X2” value is 0.5, the “Binding of serum 37 to looped/cyclic peptides of protein X2 of SARS-CoV Urbani” value worked out at 0.3, the “Binding of serum 62 to linear peptides of protein X2” value amounted to 0.5 and the “Binding of serum 62 to looped/cyclic peptides of protein X2 of SARS-CoV Urbani” value was found to be 0.5. Further, in assay [1], the “Binding of serum London to linear peptides of protein X2” value is on record as 0.4, the “Binding of serum London to looped/cyclic peptides of protein X2 of SARS-CoV Urbani” value is listed as 0.2, the “Binding of serum SARS-green to linear peptides of protein X2” value turned out to be 0.5 and the “Binding of serum SARS-green to looped/cyclic peptides of protein X2 of SARS-CoV Urbani” value came to 0.2. In addition, in assay [1], the “Binding of serum SARS-yellow to linear peptides of protein X2” value is reported as 0.3 and the “Binding of serum SARS-yellow to looped/cyclic peptides of protein X2 of SARS-CoV Urbani” value is 0.3. Also, in assay [2], the “Binding of Control Serum Blood-Bank to Looped peptides” value is 0.5, the “Binding of Control serum Blood-bank to linear peptides” value is listed as 0.5, the “Binding of Control serum LUMC to linear peptides” value is 0.3 and the “Binding of Control serum LUMC to looped peptides” value was found to be 0.6. Besides, in assay [3], the “Binding of a rabbit serum to linear peptides” value came out at 0.3 and the “Binding of a rabbit serum to looped peptides” value was found to be 0.5.
